We go through 1 molecule from ChEMBL document CHEMBL4043107, “Stable C-N axial chirality in 1-aryluracil scaffold and differences in in vitro metabolic clearance between atropisomers of PDE4 inhibitor” (Bioorg Med Chem, 2017).

This test concerns the target 3',5'-cyclic-AMP phosphodiesterase 4A (Homo sapiens, UniProt P27815). As to the kind of experiment: Inhibition of human full length recombinant PDE4A1A using FAM-cAMP as substrate after 30 mins by fluorescence based spectrophotometric method.

“And” between values parts separate entries of the source, which are not always exact repeats. Equal values may be shown once.

Sequence of 3',5'-cyclic-AMP phosphodiesterase 4A (P27815 whole entry): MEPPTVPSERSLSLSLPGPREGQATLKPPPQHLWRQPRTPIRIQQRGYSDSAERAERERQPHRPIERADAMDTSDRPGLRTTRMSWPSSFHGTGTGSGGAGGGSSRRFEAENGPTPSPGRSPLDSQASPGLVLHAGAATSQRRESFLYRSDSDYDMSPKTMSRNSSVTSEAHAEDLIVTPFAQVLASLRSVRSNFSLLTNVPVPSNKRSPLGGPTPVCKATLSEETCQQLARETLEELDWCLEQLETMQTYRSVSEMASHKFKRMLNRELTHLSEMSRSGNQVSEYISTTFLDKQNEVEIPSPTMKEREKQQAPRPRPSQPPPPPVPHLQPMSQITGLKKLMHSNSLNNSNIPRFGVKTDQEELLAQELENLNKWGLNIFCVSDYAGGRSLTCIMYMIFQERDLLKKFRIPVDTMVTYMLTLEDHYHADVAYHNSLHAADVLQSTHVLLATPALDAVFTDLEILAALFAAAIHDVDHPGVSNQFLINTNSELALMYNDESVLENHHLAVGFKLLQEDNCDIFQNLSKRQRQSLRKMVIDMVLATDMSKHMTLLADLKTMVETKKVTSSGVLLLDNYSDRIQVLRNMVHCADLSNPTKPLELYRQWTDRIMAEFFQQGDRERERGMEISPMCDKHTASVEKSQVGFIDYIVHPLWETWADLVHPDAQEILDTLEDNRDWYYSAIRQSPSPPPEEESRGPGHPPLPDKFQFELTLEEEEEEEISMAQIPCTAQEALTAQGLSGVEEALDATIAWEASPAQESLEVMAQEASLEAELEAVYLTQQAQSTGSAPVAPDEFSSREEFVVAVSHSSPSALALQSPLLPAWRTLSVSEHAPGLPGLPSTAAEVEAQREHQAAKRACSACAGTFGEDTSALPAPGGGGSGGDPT

For `CCCn1c(=O)c2ccc(N)nc2n(-c2cc(OC)ccc2OC)c1=O`, the concentration for half-maximal inhibition (IC50) is 70 µM and 125 µM.

By IC50 is commonly meant the concentration that inhibits the measured activity by half.
